Source: EP0311002A2, “Anthracyclin derivatives, a method for their preparation and their use as a drug” (HOECHST AKTIENGESELLSCHAFT, priority 1987, dated 1989)

Assay: Qualitative solubility in solvents
Type: physicochemical

5‴-Epi-Cytorhodin S
Löslichkeit (in Methanol, Ethylacetat, Chloroform und Toluol): leicht löslich
Löslichkeit (in Wasser und Hexan): unlöslich
